This is an account of results in paper PMC11539071, “Optimization of Biocatalytic Rhododendrol Production from Biogenic Rhododendrol Glycosides” (ACS Sustainable Chemistry & Engineering, 2024).

Test [1] addresses T1, β-glucosidase from almonds.
T1 construct: gene emulsin; native commercial enzyme preparation from almonds (Sigma-Aldrich)
As to the kind of experiment: initial rates by HPLC, product inhibition fit. To be noted: competitive; substrate betuloside at saturating level; 0.1 M phosphate buffer pH 6, 40 °C. It is filed as biochemical, Prunus dulcis. The text has this: initial rates by HPLC, product inhibition fit on β-glucosidase from almonds

Test [2] has as its system T1, β-glucosidase from almonds. Nature of the test: initial rates by HPLC of rhododendrol, Michaelis-Menten fit. It is filed as biochemical, Prunus dulcis. To be noted: 0.1 M phosphate buffer pH 6, 40 °C; substrate from crude glycoside mixture containing apiosylrhododendrin. The text has this: initial rates by HPLC of rhododendrol, Michaelis-Menten fit on β-glucosidase from almonds

Structures are written as SMILES.

In test [1], `OC[C@H]1OC(O)[C@H](O)[C@@H](O)[C@@H]1O` (stereo partly drawn) [glucose] showed a Ki of 65.5 ± 17.2 mM.

`C[C@H](CCc1ccc(O)cc1)O[C@@H]1O[C@H](CO)[C@@H](O)[C@H](O)[C@H]1O` (mixture of isomers) [betuloside]: the Km in test [2] is 26.7 ± 3.76 mM.

The compound `CC(O)CCc1ccc(O)cc1` (racemic) [rhododendrol] had a Ki in test [1] of 7.13 ± 2.2 mM.

As a reminder, the Ki is a measure of affinity in units of concentration, obtained from inhibition or displacement. A low value points to higher affinity. As usually defined, the Km is the substrate concentration at which the rate is half of its maximum.
